Reference: patent publication US12350259B2, “Methods of treating migraine” (Allergan Pharmaceuticals International Limited, priority 2021, dated 2025)
Like-named read-outs stand apart in the source and are kept apart here.

Experiments:
[1] = Food effect study: safety and tolerability; type: in vivo, human; settings: fed and fasted
Procedure: Plasma samples were collected pre-dose and at predetermined time intervals up to 48 hours after dosing. Atogepant plasma concentrations were determined using a validated LC-MS/MS assay and the pharmacokinetic (PK) parameters were calculated using WinNonlin. A linear mixed-effects model with sequence, study intervention, and period as fixed effects, and participant nested within sequence as a random effect was used to compare the natural logarithm transformed values of atogepant PK parameters AUC0-t, AUC0-inf, and Cmax. Safety was monitored via ECGs, vital signs, clinical labs, and adverse events.

[2] = biological target: MRP3 (Homo sapiens, UniProt O15438); experiment: Transporter inhibition; type: in vitro ADME; settings: clinically relevant concentrations
Sequence of MRP3 (O15438 whole entry): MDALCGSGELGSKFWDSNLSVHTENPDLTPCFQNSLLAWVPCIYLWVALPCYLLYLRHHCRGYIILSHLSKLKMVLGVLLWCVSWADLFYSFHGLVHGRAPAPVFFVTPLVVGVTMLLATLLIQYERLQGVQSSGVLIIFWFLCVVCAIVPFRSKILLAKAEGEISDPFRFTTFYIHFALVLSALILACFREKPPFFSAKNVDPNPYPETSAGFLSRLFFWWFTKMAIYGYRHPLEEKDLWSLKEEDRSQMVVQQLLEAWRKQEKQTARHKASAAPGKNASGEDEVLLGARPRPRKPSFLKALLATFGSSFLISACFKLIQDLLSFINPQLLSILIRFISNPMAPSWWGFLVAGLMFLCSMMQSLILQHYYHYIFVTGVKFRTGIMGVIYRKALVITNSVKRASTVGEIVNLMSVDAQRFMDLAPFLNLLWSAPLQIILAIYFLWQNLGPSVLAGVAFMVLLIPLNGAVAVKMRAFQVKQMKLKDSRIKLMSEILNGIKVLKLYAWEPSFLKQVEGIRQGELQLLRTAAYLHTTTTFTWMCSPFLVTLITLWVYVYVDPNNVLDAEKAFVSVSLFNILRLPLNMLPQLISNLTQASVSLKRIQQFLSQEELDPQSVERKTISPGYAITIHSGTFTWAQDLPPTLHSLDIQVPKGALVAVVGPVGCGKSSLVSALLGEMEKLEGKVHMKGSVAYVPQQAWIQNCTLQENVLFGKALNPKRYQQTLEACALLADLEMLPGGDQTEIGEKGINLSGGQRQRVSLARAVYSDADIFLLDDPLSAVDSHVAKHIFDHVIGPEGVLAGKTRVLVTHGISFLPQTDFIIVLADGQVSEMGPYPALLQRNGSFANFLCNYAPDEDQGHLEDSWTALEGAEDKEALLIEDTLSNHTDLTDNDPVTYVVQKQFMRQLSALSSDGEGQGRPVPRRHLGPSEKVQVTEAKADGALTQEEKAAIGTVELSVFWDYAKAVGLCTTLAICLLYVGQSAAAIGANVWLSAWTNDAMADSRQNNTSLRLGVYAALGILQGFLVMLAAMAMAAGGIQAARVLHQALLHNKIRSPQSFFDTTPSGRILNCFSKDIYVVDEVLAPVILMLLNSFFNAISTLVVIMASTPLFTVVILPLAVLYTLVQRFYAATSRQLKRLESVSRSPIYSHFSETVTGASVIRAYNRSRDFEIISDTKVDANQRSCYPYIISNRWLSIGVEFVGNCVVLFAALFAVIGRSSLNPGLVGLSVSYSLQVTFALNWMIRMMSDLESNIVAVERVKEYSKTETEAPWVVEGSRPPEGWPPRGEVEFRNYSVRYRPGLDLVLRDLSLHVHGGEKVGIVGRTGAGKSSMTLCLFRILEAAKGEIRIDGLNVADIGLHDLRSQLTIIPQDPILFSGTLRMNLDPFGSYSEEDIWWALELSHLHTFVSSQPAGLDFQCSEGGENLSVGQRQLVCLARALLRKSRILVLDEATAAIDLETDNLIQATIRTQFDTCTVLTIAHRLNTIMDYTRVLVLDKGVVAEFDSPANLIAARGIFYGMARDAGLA

[3] = Clinical pharmacokinetics of atogepant after oral administration (summary); type: in vivo, human
[4] = system: patients with episodic migraine; experiment: Study 2 (NCT02848326): preventive treatment of episodic migraine, efficacy; type: in vivo, human
Procedure: The studies enrolled patients with at least a 1-year history of migraine with or without aura, according to the International Classification of Headache Disorders (ICHD-3) diagnostic criteria. In Study 1 (NCT03777059), 910 patients were randomized 1:1:1:1 to receive atogepant 10 mg (N=222), atogepant 30 mg (N=230), atogepant 60 mg (N=235), or placebo (N=223), once daily for 12 weeks. In Study 2 (NCT02848326), 652 patients were randomized 1:2:2:2 to receive atogepant 10 mg (N=94), atogepant 30 mg (N=185), atogepant 60 mg (N=187), or placebo (N=186), once daily for 12 weeks. In both studies, patients were allowed to use acute headache treatments (i.e., triptans, ergotamine derivatives, NSAIDs, acetaminophen, and opioids) as needed. The use of a concomitant medication that acts on the CGRP pathway was not permitted for either acute or preventive treatment of migraine. The studies excluded patients with myocardial infarction, stroke, or transient ischemic attacks within six months prior to screening. The primary efficacy endpoint was the change from baseline in mean monthly migraine days across the 12-week treatment period.

[5] = Food effect study (high-fat meal), atogepant IR tablet: plasma PK; type: in vivo, human; settings: for AUC(0-inf) / AUC(0-t) / Cmax / Tmax / Vd/F: both sexes, human, plasma, oral, 60 mg; for Vd/F: read-out: Vz/F
Procedure: A single-center, randomized, open-label, single-dose, 2-period cross-over study was conducted to evaluate the effect of a high-fat meal on the systemic exposure of atogepant following single-dose administration of an immediate release (IR) tablet in healthy adult participants. Secondary objectives were to evaluate the secondary PK parameters of atogepant following single-dose administration of an IR tablet formulation of atogepant in healthy participants under fasted and fed conditions; and to evaluate the safety and tolerability profiles of single-dose atogepant in healthy adult participants under fed and fasted conditions. […] Plasma samples were collected pre-dose and at predetermined time intervals up to 48 hours after dosing. Atogepant plasma concentrations were determined using a validated LC-MS/MS assay and the pharmacokinetic (PK) parameters were calculated using WinNonlin. A linear mixed-effects model with sequence, study intervention, and period as fixed effects, and participant nested within sequence as a random effect was used to compare the natural logarithm transformed values of atogepant PK parameters AUC0-t, AUC0-inf, and Cmax. Safety was monitored via ECGs, vital signs, clinical labs, and adverse events. […] Screening occurred within 21 days before dosing (Days −21 to −1). The study intervention period was scheduled for a total of 11 days (Days −1 to 10), and the follow-up visit occurred with serum chemistry on day 38 (±3), (30 [±3] days after the last dose on Day 8). PK blood samples for analysis of plasma atogepant concentrations were collected starting on Days 1 (period 1) and 8 (period 2); at 0 hour (predose) and 0.5, 1, 1.5, 2, 3, 4, 6, 8, 12, 16, 24, 36, and 48 hours postdose. • Linear mixed effects model with natural logarithm-transformed values of AUC0-t, AUC0-inf, and Cmax, as the dependent variable and terms for study intervention, sequence, and period as fixed independent variables and participant nested in sequence as a random effect.

[6] = system: CYP1A2; experiment: CYP induction; type: in vitro ADME; settings: clinically relevant concentrations
[7] = Study 2, atogepant 10 mg once daily
[8] = Study 2, atogepant 30 mg once daily
[9] = Study 2, atogepant 60 mg once daily
[10] = All participants (N = 32), Treatments A, B1, B2
[11] = Treatment A: atogepant 60 mg alone (N = 32)
[12] = Treatment B1: atogepant 60 mg + rifampin 600 mg Day 7, rifampin Days 8-11 (N = 31)
[13] = Treatment B2: atogepant 60 mg + rifampin 600 mg Day 12, rifampin Day 13 (N = 31)
[14] = after Treatment B1 (atogepant + rifampin)
[15] = during the study, all treatments
[16] = Study Intervention A: 1 × 60 mg IR tablet, fed
[17] = Study Intervention B: 1 × 60 mg IR tablet, fasted
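Throughout, for Deaths: safety population of participants given at least one dose, adverse events recorded through clinical assessment across the whole study.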
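Throughout, for TEAE leading to treatment discontinuation: safety population of participants given at least one dose, adverse events recorded through clinical assessment across the whole study.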
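Throughout, for Treatment-Emergent Serious Adverse Events (TESAE): safety population of participants given at least one dose, adverse events recorded through clinical assessment across the whole study.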
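Throughout, for Treatment-emergent adverse events (TEAE): safety population of participants given at least one dose, adverse events recorded through clinical assessment across the whole study.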

## C[C@@H]1[C@H](c2c(F)ccc(F)c2F)C[C@H](NC(=O)c2cnc3c(c2)C[C@@]2(C3)C(=O)Nc3ncccc32)C(=O)N1CC(F)(F)F [atogepant, (3′S)-N-[(3S,5S,6R)-6-methyl-2-oxo-1-(2,2,2-trifluoroethyl)-5-(2,3,6-trifluorophenyl)piperidin-3-yl]-2′-oxo-1′,2′,5,7-tetrahydrospiro[cyclopenta[b]pyridine-6,3′-pyrrolo[2,3-b]pyridine]-3-carboxamide]
[1]; overall
  participants with TEAEs considered related to study intervention: 15%
  participants with arthralgia: 10.0%
  participants with back pain: 10.0%
  participants with treatment emergent AEs (TEAEs): 35.0%
[1]; single doses of 60-mg IR formulation
  safety and tolerability: safe and well-tolerated
[2]
  inhibition of MRP3: not an inhibitor
[3]; human, in vivo, po
  mean apparent oral clearance (CL/F): approximately 19 L/hr
[3]; human, plasma, oral, read-out: elimination half-life (converted)
  half-life: ~11 h
[3]; human, plasma, after oral administration, read-out: mean apparent volume distribution (Vz/F)
  Vd/F: ~282 L
[3]; once daily dosing
  accumulation: no accumulation
  dose proportionality: dose-proportional pharmacokinetics up to 170 mg
[4]; [7]
  Monthly Headache Days across 12 weeks, difference from placebo: −1.4
  Monthly Headache Days across 12 weeks, mean change from baseline: −4.3
  Monthly Migraine Days (MMD) across 12 weeks, difference from placebo: −1.1
  Monthly Migraine Days (MMD) across 12 weeks, mean change from baseline: −4.0
[4]; [8]
  Monthly Headache Days across 12 weeks, difference from placebo: −1.2
  Monthly Headache Days across 12 weeks, mean change from baseline: −4.2
  Monthly Migraine Days (MMD) across 12 weeks, difference from placebo: −0.9
  Monthly Migraine Days (MMD) across 12 weeks, mean change from baseline: −3.8
[4]; [9]
  Monthly Headache Days across 12 weeks, difference from placebo: −0.9
  Monthly Headache Days across 12 weeks, mean change from baseline: −3.9
  Monthly Migraine Days (MMD) across 12 weeks, difference from placebo: −0.7
  Monthly Migraine Days (MMD) across 12 weeks, mean change from baseline: −3.6
[10]
  Deaths: 0 n (%)
  TEAE leading to treatment discontinuation: 0 n (%)
  Treatment-Emergent Serious Adverse Events (TESAE): 0 n (%)
  Treatment-emergent adverse events (TEAE): 11 (34.4) n (%)
[11]
  Deaths: 0 n (%)
  TEAE leading to treatment discontinuation: 0 n (%)
  Treatment-Emergent Serious Adverse Events (TESAE): 0 n (%)
  Treatment-emergent adverse events (TEAE): 0 n (%)
[12]
  Deaths: 0 n (%)
  TEAE leading to treatment discontinuation: 0 n (%)
  Treatment-Emergent Serious Adverse Events (TESAE): 0 n (%)
  Treatment-emergent adverse events (TEAE): 8 (25.8) n (%)
[13]
  Deaths: 0 n (%)
  TEAE leading to treatment discontinuation: 0 n (%)
  Treatment-Emergent Serious Adverse Events (TESAE): 0 n (%)
  Treatment-emergent adverse events (TEAE): 5 (16.1) n (%)
[14]
  participants with at least one treatment-related TEAE: 12.9%
  participants with headache (most common TEAE): 6.5%
After Treatment B2 (atogepant + rifampin)
  participants with at least one treatment-related TEAE: 6.5%
Atogepant alone or with rifampin
  changes in clinical laboratory test results, vital signs, ECG findings: no notable changes from baseline
Atogepant and rifampin, healthy participants
  tolerability: well tolerated
[15]
  participants with at least one treatment-related TEAE: 15.6%
  participants with mild TEAEs: 31.3%
During the study, after Treatment B1
  participants with moderate TEAEs: 3.1%
During the study, one after B1, one after B2
  participants with treatment-related nausea: 6.3%
[5]; [16]
  CL/F: 26.10 L/h
  Tlag (median): 0 h
  tt/2: 9.41 h
  λz: 0.0840 h⁻¹
  Vd/F: 368 L
[5]; [17]
  CL/F: 21.03 L/h
  Tlag (median): 0 h
  tt/2: 9.71 h
  λz: 0.0799 h⁻¹
  Vd/F: 299 L
[5]; Fasted (Ref), read-out: AUC0-inf GLSM
  AUC(0-inf): 3160 ng·h/mL
[5]; Fasted (Ref), read-out: AUC0-t GLSM
  AUC(0-t): 3130 ng·h/mL
[5]; Fasted (Ref), read-out: Cmax GLSM
  Cmax: 677 ng/mL
[5]; Fasted (ref), read-out: Tmax Median
  Tmax: 2.01 h
[5]; Fed (Test), read-out: AUC0-inf GLSM
  AUC(0-inf): 2610 ng·h/mL
[5]; Fed (Test), read-out: AUC0-t GLSM
  AUC(0-t): 2560 ng·h/mL
[5]; Fed (Test), read-out: Cmax GLSM
  Cmax: 527 ng/mL
[5]; Fed (Test), read-out: Tmax Median
  Tmax: 2.01 h
[5]; Study Intervention A: 1 × 60 mg IR tablet, fed, read-out: AUC0-inf
  AUC(0-inf): 3200 ng·h/mL
[5]; Study Intervention A: 1 × 60 mg IR tablet, fed, read-out: AUC0-t
  AUC(0-t): 3090 ng·h/mL
[5]; Study Intervention A: 1 × 60 mg IR tablet, fed, read-out: Cmax
  Cmax: 594 ng/mL
[5]; Study Intervention A: 1 × 60 mg IR tablet, fed, read-out: Tmax (median)
  Tmax: 2.01 h
[5]; Study Intervention B: 1 × 60 mg IR tablet, fasted, read-out: AUC0-inf
  AUC(0-inf): 3490 ng·h/mL
[5]; Study Intervention B: 1 × 60 mg IR tablet, fasted, read-out: AUC0-t
  AUC(0-t): 3460 ng·h/mL
[5]; Study Intervention B: 1 × 60 mg IR tablet, fasted, read-out: Cmax
  Cmax: 732 ng/mL
[5]; Study Intervention B: 1 × 60 mg IR tablet, fasted, read-out: Tmax (median)
  Tmax: 2.01 h
[5]; fed vs fasted, read-out: Tmax Median of Paired Differences (Test Minus Reference)
  Tmax: 0.5 h
[5]; fed vs fasted
  AUC0-inf Ratio of GLSMs Test/Ref: 82.53%
  AUC0-t Ratio of GLSMs Test/Ref: 81.70%
  Cmax Ratio of GLSMs Test/Ref: 77.90%
[5]; high-fat meal
  effect on median time to maximum atogepant plasma concentration: no effect
[5]; high-fat meal (fed) vs fasted
  reduction of AUC: approximately 18%
[6]
  induction of CYP1A2: not an inducer
